Each compound was assayed against T1, Choline Kinase alpha enzyme (Homo sapiens, UniProt P35790) (assay: Choline Kinase Alpha Inhibition Assay (coupled NADH absorbance)). Details: not given.
T1 construct: hChoKα1(M1-V457) (NP_001268); GST (N); made in house; host or cells: E. coli BL21(DE3)
T1 sequence (P35790 whole entry): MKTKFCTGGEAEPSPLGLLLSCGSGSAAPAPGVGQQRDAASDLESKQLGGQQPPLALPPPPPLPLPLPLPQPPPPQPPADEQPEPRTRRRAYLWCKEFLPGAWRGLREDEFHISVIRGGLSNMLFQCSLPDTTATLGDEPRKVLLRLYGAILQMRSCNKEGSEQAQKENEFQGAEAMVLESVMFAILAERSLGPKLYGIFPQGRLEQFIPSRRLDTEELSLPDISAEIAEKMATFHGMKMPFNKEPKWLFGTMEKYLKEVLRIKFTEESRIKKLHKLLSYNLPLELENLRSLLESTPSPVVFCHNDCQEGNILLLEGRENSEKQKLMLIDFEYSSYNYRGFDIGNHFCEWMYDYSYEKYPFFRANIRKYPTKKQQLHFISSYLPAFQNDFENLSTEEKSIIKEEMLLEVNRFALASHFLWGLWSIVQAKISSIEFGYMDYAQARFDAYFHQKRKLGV
Format: biochemical
Experimental: An assay buffer solution was prepared which consisted of 100 mM Tris-HCl (pH 7.5), 100 mM KCl, and 10 mM MgCl2. An enzyme buffer containing reagents to final assay concentrations of 290 μM NADH, 2.4 mM phosphoenolpyruvate, 60 μg/mL pyruvate kinase, 20 μg/mL lactate dehydrogenase, 200 μM choline chloride substrate and 20 nM Choline Kinase alpha enzyme was prepared in assay buffer. To 32 μL of this enzyme buffer, in a 96 well plate, was added 2 μL of VRT stock solution in DMSO. The mixture was allowed to equilibrate for 10 mins at 25° C. The enzyme reaction was initiated by the addition of 32 μL stock ATP solution prepared in assay buffer to a final assay concentration of 400 μM. Initial rate data was determined from the rate of change of absorbance at 340 nm (corresponding to stoichiometric consumption of NADH) using a Molecular Devices Spectramax plate reader (Sunnyvale, Calif.) over 15 mins at 25° C. For each IC50 determination, 12 data points covering the VRT concentration range of 0-100 μM were obtained in duplicate (DMSO stocks were prepared from an initial 10 mM VRT stock with subsequent 1:2.5 serial dilutions). IC50 values were calculated from initial rate data using the Prism software package (Prism 4.0a, Graphpad Software, San Diego, Calif.).
hChoKα1(M1-V457) (NP_001268) was codon optimized for E. coli and cloned into a modified pGEX-2T vector. Recombinant GST-tagged ChoKα1 protein was produced in E. coli strain BL21(DE3). After growing cell cultures at 37° C. until the OD600=1, the cultures were induced with 1 mM IPTG for 16 h at 30° C. and the cells were harvested as a pellet (8500 rpm, 4° C., 20 min). The protein was purified using glutathione affinity purification followed by size exclusion via Superdex-200 26/60 (GE Healthcare). See Malito, Enrico et. al., “Journal of Molecular Biology”, Volume 364, Issue 2, pages 136-151 (November 2006).
In the case of `O=C(c1ccc(N2CCCC2)cc1)C1CN2CCC1CC2` (stereo not drawn) [Compound I-3, (4-pyrrolidin-1-ylphenyl)-quinuclidin-3-yl-methanone], the IC50 is reported as under 100 nM. For `O=C(c1ccc(-c2ccccc2)cc1)C1CN2CCC1CC2` (stereo not drawn) [Compound I-14, (4-phenylphenyl)-quinuclidin-3-yl-methanone], the IC50 was 1000 to 50000 nM. Compound `CN(C)c1ccc(C(=O)C2CN3CCC2CC3)cc1` (stereo not drawn) [Compound I-1, (4-dimethylaminophenyl)-quinuclidin-3-yl-methanone] has an IC50 of under 100 nM. Compound `CN1CCOc2cc(C(=O)C3CN4CCC3CC4)ccc21` (stereo not drawn) [Compound I-5] has an IC50 of under 100 nM.

Same assay, conditions: 20 nM enzyme, 200 μM choline chloride, 400 μM ATP, 25° C.; read-out: IC50 values, Choline Kinase Alpha inhibition
`Cc1ccc(C(=O)C2CN3CCC2CC3)cc1` (stereo not drawn) [Compound I-32, p-tolyl(quinuclidin-3-yl)methanone] was tested, and the IC50 was 1000 to 50000 nM. `CN(C)c1c(Br)cc(C(=O)C2CN3CCC2CC3)cc1Br` (stereo not drawn) [Compound I-26, [3,5-dibromo-4-(dimethylamino)phenyl]-quinuclidin-3-yl-methanone] gave an IC50 of 1000 to 50000 nM. Work on `O=C(c1ccc(OC(F)(F)F)cc1)C1CN2CCC1CC2` (stereo not drawn) [Compound I-19, quinuclidin-3-yl-[4-(trifluoromethoxy)phenyl]methanone] yielded an IC50 of 1000 to 50000 nM. With `O=C(c1cccc(F)c1)C1CN2CCC1CC2` (stereo not drawn) [Compound I-9, (3-fluorophenyl)-quinuclidin-3-yl-methanone] the IC50 was 1000 to 50000 nM. With `Cc1cc(C(=O)C2CN3CCC2CC3)ccc1N(C)C` (stereo not drawn) [Compound I-27, (4-(dimethylamino)-3-methylphenyl)(quinuclidin-3-yl)methanone] the IC50 was 100 to 1000 nM. `Cc1cccc(C(=O)C2CN3CCC2CC3)c1C` (stereo not drawn) [Compound I-21, (2,3-dimethylphenyl)-quinuclidin-3-yl-methanone] gave an IC50 of 1000 to 50000 nM. In the case of `O=C(c1ccc(N2CCCCC2)cc1)C1CN2CCC1CC2` (stereo not drawn) [Compound I-4, [4-(1-piperidyl)phenyl]-quinuclidin-3-yl-methanone], the IC50 is reported as 100 to 1000 nM. For `CC(O)c1ccc(C(=O)C2CN3CCC2CC3)cc1` (stereo not drawn) [Compound I-29, [4-(1-hydroxyethyl)phenyl]-quinuclidin-3-yl-methanone], the IC50 was 1000 to 50000 nM. In the case of `Cc1ncccc1C(=O)C1CN2CCC1CC2` (stereo not drawn) [Compound I-24, (2-methyl-3-pyridyl)-quinuclidin-3-yl-methanone], the IC50 is reported as 1000 to 50000 nM. `O=C(c1cccc(Cl)c1)C1CN2CCC1CC2` (stereo not drawn) [Compound I-33, (3-chlorophenyl)-quinuclidin-3-yl-methanone] was tested, and the IC50 was 1000 to 50000 nM. Work on `O=C(c1nc2ccccc2s1)C1CN2CCC1CC2` (stereo not drawn) [Compound I-22, benzo[d]thiazol-2-yl(quinuclidin-3-yl)methanone] yielded an IC50 of 1000 to 50000 nM. For `O=C(c1ccc2c(c1)OCO2)C1CN2CCC1CC2` (stereo not drawn) [Compound I-15, 1,3-benzodioxol-5-yl(quinuclidin-3-yl)methanone], the IC50 was 1000 to 50000 nM. Work on `CC(C)c1ccc(C(=O)C2CN3CCC2CC3)cc1` (stereo not drawn) [Compound I-36] yielded an IC50 of 100 to 1000 nM. Compound `CC(C)(C)c1ccc(C(=O)C2CN3CCC2CC3)cc1` (stereo not drawn) [Compound I-20, (4-tert-butylphenyl)-quinuclidin-3-yl-methanone] has an IC50 of 100 to 1000 nM. `CN1CCN(C)c2cc(C(=O)C3CN4CCC3CC4)ccc21` (stereo not drawn) [Compound I-28, (1,4-dimethyl-2,3-dihydroquinoxalin-6-yl)-quinuclidin-3-yl-methanone] showed an IC50 of 100 to 1000 nM. For `CCN(CC)c1ccc(C(=O)C2CN3CCC2CC3)cc1` (stereo not drawn) [Compound I-2, [4-(diethylamino)phenyl]-quinuclidin-3-yl-methanone], the IC50 was 100 to 1000 nM. With `COc1ccc(C(=O)C2CN3CCC2CC3)cc1` (stereo not drawn) [Compound I-7, (4-methoxyphenyl)-quinuclidin-3-yl-methanone] the IC50 was 1000 to 50000 nM. Compound `O=C(c1ccccc1)C1CN2CCC1CC2` (stereo not drawn) [Compound I-35, phenyl(quinuclidin-3-yl)methanone] has an IC50 of 1000 to 50000 nM. `Cc1ccc(Cl)cc1C(=O)C1CN2CCC1CC2` (stereo not drawn) [Compound I-23, (5-chloro-2-methylphenyl)(quinuclidin-3-yl)methanone] showed an IC50 of 1000 to 50000 nM. In the case of `CN(C)c1ccc(C(=O)C2CN3CCC2CC3)cc1Br` (stereo not drawn) [Compound I-25, [3-bromo-4-(dimethylamino)phenyl]-quinuclidin-3-yl-methanone], the IC50 is reported as 100 to 1000 nM. Compound `CN1CCc2cc(C(=O)C3CN4CCC3CC4)ccc21` (stereo not drawn) [Compound I-30] has an IC50 of 100 to 1000 nM. In the case of `COc1cc(OC)cc(C(=O)C2CN3CCC2CC3)c1` (stereo not drawn) [Compound I-12, (3,5-dimethoxyphenyl)-quinuclidin-3-yl-methanone], the IC50 is reported as 1000 to 50000 nM. Compound `O=C(c1cccc2ccccc12)C1CN2CCC1CC2` (stereo not drawn) [Compound I-17, 1-naphthyl(quinuclidin-3-yl)methanone] has an IC50 of 1000 to 50000 nM. For `O=C(c1cccc(-c2ccccc2)c1)C1CN2CCC1CC2` (stereo not drawn) [Compound I-18, (3-phenylphenyl)-quinuclidin-3-yl-methanone], the IC50 was 1000 to 50000 nM. In the case of `CCCc1ccc(C(=O)C2CN3CCC2CC3)cc1` (stereo not drawn) [Compound I-13, (4-propylphenyl)-quinuclidin-3-yl-methanone], the IC50 is reported as 100 to 1000 nM. Work on `O=C(c1ccc2ccccc2c1)C1CN2CCC1CC2` (stereo not drawn) [Compound I-8, 2-naphthyl(quinuclidin-3-yl)methanone] yielded an IC50 of 100 to 1000 nM. Work on `O=C(c1ccc(F)c(Cl)c1)C1CN2CCC1CC2` (stereo not drawn) [Compound I-11, (3-chloro-4-fluoro-phenyl)-quinuclidin-3-yl-methanone] yielded an IC50 of 1000 to 50000 nM. Work on `O=C(c1ccc(Cl)cc1)C1CN2CCC1CC2` (stereo not drawn) [Compound I-34, (4-chlorophenyl)-quinuclidin-3-yl-methanone] yielded an IC50 of 1000 to 50000 nM. With `CCc1ccc(C(=O)C2CN3CCC2CC3)cc1` (stereo not drawn) [Compound I-16, (4-ethylphenyl)-quinuclidin-3-yl-methanone] the IC50 was 100 to 1000 nM. With `O=C(Cc1ccccc1)C1CN2CCC1CC2` (stereo not drawn) [Compound I-6, 2-phenyl-1-(quinuclidin-3-yl)ethanone] the IC50 was 1000 to 50000 nM. Compound `O=C(c1ccc(F)cc1)C1CN2CCC1CC2` (stereo not drawn) [Compound I-10, (4-fluorophenyl)-quinuclidin-3-yl-methanone] has an IC50 of 1000 to 50000 nM. `Cc1ccccc1C(=O)C1CN2CCC1CC2` (stereo not drawn) [Compound I-31, o-tolyl(quinuclidin-3-yl)methanone] showed an IC50 of 1000 to 50000 nM.
